Test results reported in PubChem BioAssay AID248 (DTP/NCI, 2004).
Where “and” joins values, the source holds several entries; their conditions need not be identical. Equal values may be shown once. Inconclusive results and toxic doses are left out. No stated cut-off is given here; in the data, active means T/C of 150% or more; inactive means T/C below 125%.

Tested on: L1210 leukemia ip in BDF1 mice, survival T/C
Test: NCI In Vivo Anticancer Drug Screen. Data for tumor model L1210 Leukemia (intraperitoneal) in B6D2F1 (BDF1) mice
Conditions: endpoint: mean survival time, higher = longer survival
How it was run: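 Each compound was tested against a transplantable tumor grown in mice. The endpoint was survival, with treated animals benchmarked against vehicle controls as a simple ratio.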

[1] = dose: 100.0 mg/kg/injection, schedule: Q04DX003 (ip), vehicle: saline
[2] = dose: 200.0 mg/kg/injection, schedule: Q04DX003 (ip), vehicle: saline
[3] = dose: 100.0 mg/kg/injection, schedule: Q01DX009 (ip), vehicle: Klucel (hydroxypropylcellulose) (HPC)
[4] = dose: 100.0 mg/kg/injection, schedule: Q04DX003 (ip), vehicle: Klucel (hydroxypropylcellulose) (HPC)
[5] = dose: 200.0 mg/kg/injection, schedule: Q04DX003 (ip), vehicle: Klucel (hydroxypropylcellulose) (HPC)
[6] = dose: 400.0 mg/kg/injection, schedule: Q04DX003 (ip), vehicle: Klucel (hydroxypropylcellulose) (HPC)
[7] = dose: 100.0 mg/kg/injection, schedule: Q04DX002 (ip), vehicle: saline
[8] = dose: 200.0 mg/kg/injection, schedule: Q04DX002 (ip), vehicle: saline
[9] = dose: 400.0 mg/kg/injection, schedule: Q04DX002 (ip), vehicle: saline
[10] = dose: 200.0 mg/kg/injection, schedule: Q01DX009 (ip), vehicle: Klucel (hydroxypropylcellulose) (HPC)
[11] = dose: 400.0 mg/kg/injection, schedule: Q01DX009 (ip), vehicle: Klucel (hydroxypropylcellulose) (HPC)
[12] = dose: 100.0 mg/kg/injection, schedule: Q04DX003 (ip), vehicle: saline with Tween-80
[13] = dose: 200.0 mg/kg/injection, schedule: Q04DX003 (ip), vehicle: saline with Tween-80
[14] = dose: 400.0 mg/kg/injection, schedule: Q04DX003 (ip), vehicle: saline with Tween-80

Measured: T/C

Cc1ccc(C[P+](c2ccccc2)(c2ccccc2)c2ccccc2)cc1
inactive: dose: 2.0 mg/kg/injection, schedule: Q01DX015 (ip), vehicle: saline 97 % of control | dose: 4.0 mg/kg/injection, schedule: Q01DX015 (ip), vehicle: saline 100 % of control | dose: 5.0 mg/kg/injection, schedule: Q01DX001 (ip), vehicle: saline 102 % of control | dose: 8.0 mg/kg/injection, schedule: Q01DX015 (ip), vehicle: saline 100 % of control | dose: 10.0 mg/kg/injection, schedule: Q01DX001 (ip), vehicle: saline 104 % of control | dose: 20.0 mg/kg/injection, schedule: Q01DX001 (ip), vehicle: saline 93 % of control | dose: 40.0 mg/kg/injection, schedule: Q01DX001 (ip), vehicle: saline 96 % of control

O=C(O)C1(Br)CC2CC1C1C2C2(Cl)C(Cl)=C(Cl)C1(Cl)C2(Cl)Cl (configuration not stated)
inactive: dose: 75.0 mg/kg/injection, schedule: Q01DX001 (ip), vehicle: other 96 % of control | dose: 150.0 mg/kg/injection, schedule: Q01DX001 (ip), vehicle: other 96 % of control | dose: 300.0 mg/kg/injection, schedule: Q01DX001 (ip), vehicle: other 96 % of control

Cc1ccnc(NS(=O)(=O)c2ccc(N=Nc3c(N)n(C)c(=O)n(C)c3=O)cc2)n1
inactive: dose: 100.0 mg/kg/injection, schedule: Q01DX001 (ip), vehicle: carboxymethylcellulose (CMC) 98 % of control | dose: 200.0 mg/kg/injection, schedule: Q01DX001 (ip), vehicle: carboxymethylcellulose (CMC) 93 % of control | dose: 400.0 mg/kg/injection, schedule: Q01DX001 (ip), vehicle: carboxymethylcellulose (CMC) 95 % of control

CCCCCCCCCCCCCCCCCC[n+]1ccc(C(N)=O)cc1
inactive: [1] 91 % of control

CCOC(=O)N/N=C(/C)OCC
inactive: [1] 102 % of control | [2] 102 % of control

Nc1ccc(N)c(N)n1
inactive: dose: 6.25 mg/kg/injection, schedule: Q04DX003 (ip), vehicle: saline 95 % of control | dose: 12.5 mg/kg/injection, schedule: Q04DX003 (ip), vehicle: saline 97 % of control | dose: 15.0 mg/kg/injection, schedule: Q01DX001 (ip), vehicle: saline 107 % of control | dose: 25.0 mg/kg/injection, schedule: Q04DX003 (ip), vehicle: saline 97 % of control | dose: 30.0 mg/kg/injection, schedule: Q01DX001 (ip), vehicle: saline 107 % of control | dose: 60.0 mg/kg/injection, schedule: Q01DX001 (ip), vehicle: saline 97 % of control

NNC(=O)c1ccc(Br)cc1
inactive: dose: 25.0 mg/kg/injection, schedule: Q01DX009 (ip), vehicle: Klucel (hydroxypropylcellulose) (HPC) 93 % of control | dose: 50.0 mg/kg/injection, schedule: Q01DX009 (ip), vehicle: Klucel (hydroxypropylcellulose) (HPC) 96 % of control | [3] 104 % of control | [4] 94 % of control | [5] 103 % of control | [6] 106 % of control

CC1(C)OC(=O)CC1CCCC(=O)O (configuration not stated)
inactive: dose: 100.0 mg/kg/injection, schedule: Q04DX002 (ip), vehicle: Klucel (hydroxypropylcellulose) (HPC) 104 % of control | dose: 200.0 mg/kg/injection, schedule: Q04DX002 (ip), vehicle: Klucel (hydroxypropylcellulose) (HPC) 96 % of control | dose: 400.0 mg/kg/injection, schedule: Q04DX002 (ip), vehicle: Klucel (hydroxypropylcellulose) (HPC) 96 % of control

Cc1ccc(S(=O)(=O)N(CCCc2c(C)nc(N)nc2N)c2ccccc2)cc1
inactive: [7] 110 % of control | [8] 104 % of control | [9] 91 % of control

O=C(/C(=N/Nc1ccccc1)c1ccccc1)c1ccccc1
inactive: dose: 25.0 mg/kg/injection, schedule: Q04DX003 (ip), vehicle: Klucel (hydroxypropylcellulose) (HPC) 104 % of control | dose: 50.0 mg/kg/injection, schedule: Q04DX003 (ip), vehicle: Klucel (hydroxypropylcellulose) (HPC) 95 % of control | [3] 108 % of control | [4] 100 % of control and 103 % of control | [10] 104 % of control | [5] 97 % of control | [11] 104 % of control | [6] 95 % of control

COc1ccc(Cl)cc1NC(=O)Nc1ccccc1
inactive: [3] 87 % of control | [4] 99 % of control | [10] 94 % of control | [5] 97 % of control | [11] 89 % of control | [6] 92 % of control

Clc1ccc(/C=C/c2nccc(Cl)n2)cc1
inactive: [12] 106 % of control | [13] 106 % of control | [14] 106 % of control

Nc1nc(N)c(CCCOc2ccc(NC(=O)CCCc3ccc(NC(=O)CBr)cc3)cc2)c(N)n1
inactive: [4] 102 % of control | [5] 109 % of control | [6] 102 % of control

O=C(Nc1cccc([N+](=O)[O-])c1)c1ccc(Cl)c(Cl)c1
inactive: dose: 25.0 mg/kg/injection, schedule: Q04DX003 (ip), vehicle: saline with Tween-80 115 % of control | dose: 50.0 mg/kg/injection, schedule: Q04DX003 (ip), vehicle: saline with Tween-80 96 % of control | [12] 99 % of control | [13] 86 % of control | dose: 300.0 mg/kg/injection, schedule: Q04DX003 (ip), vehicle: saline with Tween-80 86 % of control

Cc1ccc(NCc2nc(N)nc(Nc3ccccc3)n2)cc1
inactive: [12] 97 % of control | [13] 92 % of control | [14] 93 % of control

CC1OC1C1OC1C (configuration not stated)
inactive: [7] 109 % of control | [1] 104 % of control and 101 % of control and 97 % of control | [8] 109 % of control | [2] 108 % of control and 111 % of control and 95 % of control | [9] 109 % of control | dose: 400.0 mg/kg/injection, schedule: Q04DX003 (ip), vehicle: saline 111 % of control and 97 % of control and 98 % of control

O=C1OC2CC1(O)CC(O)C2O (configuration not stated)
inactive: dose: 50.0 mg/kg/injection, schedule: Q01DX009 (ip), vehicle: saline with Tween-80 92 % of control | dose: 100.0 mg/kg/injection, schedule: Q01DX009 (ip), vehicle: saline with Tween-80 94 % of control | dose: 200.0 mg/kg/injection, schedule: Q01DX009 (ip), vehicle: saline with Tween-80 92 % of control

c1ccc2c(c1)oc1ccccc12
inactive: dose: 100.0 mg/kg/injection, schedule: Q01DX001 (ip), vehicle: saline 102 % of control | dose: 200.0 mg/kg/injection, schedule: Q01DX001 (ip), vehicle: saline 102 % of control | dose: 400.0 mg/kg/injection, schedule: Q01DX001 (ip), vehicle: saline 96 % of control

COC(=O)C(NC(=O)CCl)C(=O)OC
inactive: dose: 100.0 mg/kg/injection, schedule: Q04DX003 (ip), vehicle: other 96 % of control | dose: 200.0 mg/kg/injection, schedule: Q04DX003 (ip), vehicle: other 93 % of control | dose: 400.0 mg/kg/injection, schedule: Q04DX003 (ip), vehicle: other 94 % of control
